For orientation: melting point means the temperature, or range, at which the solid turns liquid. As for `O=C(Nc1cc2ncc(CN3CCCC3)cc2cc1Cl)c1ccc(-c2cc3ccccc3o2)cc1` [Example 68, 4-(1-benzofuran-2-yl)-N-[6-chloro-3-(1-pyrrolidinylmethyl)-7-quinolinyl]benzamide], the melting point was determined as 209 °C.

Turning to `O=C(Nc1cc2ncc(CN3CCCC3)cc2cc1Cl)c1ccc(-c2ccc(Cl)cc2)cc1` [Example 25, 4′-chloro-N-[6-chloro-3-(1-pyrrolidinylmethyl)-7-quinolinyl][1,1′-biphenyl]-4-carboxamide], the melting point is 188 °C (dec.).

As to `Cc1c(NC(=O)c2ccc(-c3ccc(F)cc3)nc2)ccc2cc(CN3CCCC3)cnc12` [Example 97, 6-(4-fluorophenyl)-N-[8-methyl-3-(1-pyrrolidinylmethyl)-7-quinolinyl]nicotinamide], the melting point was in the range of 207 to 209 °C.

For the compound `Cc1c(NC(=O)N2CCC(c3ccc(Cl)cc3)CC2)ccc2cc(CN3CCCC3)cnc12` [Example 98, 4-(4-chlorophenyl)-N-[8-methyl-3-(1-pyrrolidinylmethyl)-7-quinolinyl]-1-piperidine carboxamide], the melting point is 203 to 205 °C.

The compound `CCN(CC)C(=O)CC1CCN(Cc2cnc3cc(NC(=O)c4ccc(-c5ccc(F)cc5)cc4)c(C)cc3c2)CC1` [Example 266, N-[3-({4-[2-(diethylamino)-2-oxoethyl]-1-piperidinyl}methyl)-6-methyl-7-quinolinyl]-4′-fluoro[1,1′-biphenyl]-4-carboxamide] displayed a melting point of 197 °C.

Turning to `Cc1cc2cc(CN3CCC(CC(N)=O)CC3)cnc2cc1NC(=O)c1ccc(-c2ccc(F)cc2)cc1` [Example 270, N-(3-{[4-(2-amino-2-oxoethyl)-1-piperidinyl]methyl}-6-methyl-7-quinolinyl)-4′-fluoro[1,1′-biphenyl]-4-carboxamide], the melting point was determined as 249 °C.

As for `O=C(Nc1cc2ncc(CN3CCCC3)cc2cc1F)c1ccc(-c2ccc(Cl)cc2)cc1F` [Example 62, 4′-chloro-3-fluoro-N-[6-fluoro-3-(1-pyrrolidinylmethyl)-7-quinolinyl][1,1′-biphenyl]-4-carboxamide], the melting point was 217 to 219 °C.

`COc1ccc(-c2ccc(C(=O)Nc3cc4ncc(CN5CCCC5)cc4cc3C)cc2F)cc1` [Example 236, 2-fluoro-4′-methoxy-N-[6-methyl-3-(1-pyrrolidinylmethyl)-7-quinolinyl][1,1′-biphenyl]-4-carboxamide] had a melting point of 165 to 167 °C.

For the compound `CCN(CC)Cc1cnc2cc(NC(=O)c3ccc(-c4ccc(Cl)cc4)cc3)c(OC)cc2c1` [Example 22, 4′-chloro-N-{3-[(diethylamino)methyl]-6-methoxy-7-quinolinyl}[1,1′-biphenyl]-4-carboxamide], the melting point is 271 °C (dec.).

In the case of `CCNC(=O)CC1CCN(Cc2cnc3cc(NC(=O)c4ccc(-c5ccc(Cl)cc5)cc4)ccc3c2)CC1` [Example 91, 4′-chloro-N-[3-({4-[2-(ethylamino)-2-oxoethyl]-1-piperidinyl}methyl)-7-quinolinyl][1,1′-biphenyl]-4-carboxamide], the melting point turned out to be 250 °C.

Compound `CCN(CC)Cc1cnc2cc(NC(=O)c3ccc(-c4ccc(F)cc4)cc3)c(C)cc2c1` [Example 249, N-{3-[(diethylamino)methyl]-6-methyl-7-quinolinyl)-4′-fluoro[1,1′-biphenyl]-4-carboxamide] registered a melting point of 145 to 148 °C.

For `Cc1ccc(C2CCN(C(=O)Nc3ccc4cc(CN5CCCC5)cnc4c3)CC2)cc1` [Example 15, 4-(4-methylphenyl)-N-[3-(1-pyrrolidinylmethyl)-7-quinolinyl]-1-piperidine carboxamide], the melting point is 244 to 246 °C.

Regarding `Cc1c(NC(=O)c2ccc(-c3ccc(F)c(F)c3)cc2)ccc2cc(CN3CCCC3)cnc12` [Example 102, 3′,4′-difluoro-N-[8-methyl-3-(1-pyrrolidinylmethyl)-7-quinolinyl][1,1′-biphenyl]-4-carboxamide], the melting point lay within 199 to 201 °C.

`CNC(=O)CC1CCN(Cc2cnc3c(C)c(NC(=O)c4ccc(-c5ccc(F)cc5)cc4)ccc3c2)CC1` [Example 201, 4′-fluoro-N-[8-methyl-3-({4-[2-(methylamino)-2-oxoethyl]-1-piperidinyl}methyl)-7-quinolinyl][1,1′-biphenyl]-4-carboxamide] registered a melting point of 229 to 231 °C.

For `COc1ccc(-c2ccc(C(=O)Nc3cc4ncc(CN5CCCC5)cc4cc3F)c(F)c2)cc1` [Example 59, 3-fluoro-N-[6-fluoro-3-(1-pyrrolidinylmethyl)-7-quinolinyl]-4′-methoxy[1,1′-biphenyl]-4-carboxamide], the melting point was 174 to 176 °C.

In turn, `O=C(Nc1ccc2cc(CN3CCCC3)cnc2c1)N1CCC(c2ccccc2)CC1` [Example 12, 4-phenyl-N-[3-(1-pyrrolidinylmethyl)-7-quinolinyl]-1-piperidine carboxamide] registered a melting point of 222 to 224 °C.

Take `COc1ccc(-c2ccc(C(=O)Nc3ccc4cc(CN5CCCCCC5)cnc4c3C)c(F)c2)cc1` [Example 185, N-[3-(1-azepanylmethyl)-8-methyl-7-quinolinyl]-3-fluoro-4′-methoxy[1,1′-biphenyl]-4-carboxamide]: the melting point lay in the range of 171 to 172 °C.

For `Cc1cc2cc(CN3CCCCCC3)cnc2cc1NC(=O)c1ccc(-c2ccc(Cl)s2)cc1` [Example 241, N-[3-(1-azepanylmethyl)-6-methyl-7-quinolinyl]-4-(5-chlorothien-2-yl)benzamide], the melting point is 180 °C.

Consider `Cc1c(NC(=O)c2ccc(-c3ccc(F)cc3)cc2)ccc2cc(CN3CCCCC3)cnc12` [Example 166, 4′-fluoro-N-[8-methyl-3-(1-piperidinylmethyl)-7-quinolinyl][1,1′-biphenyl]-4-carboxamide], for which the melting point was 188 to 190 °C.

As for `Cc1cc(-c2ccc(F)cc2)ccc1C(=O)Nc1ccc2cc(CN3CCCC3)cnc2c1C` [Example 158, 4′-fluoro-3-methyl-N-[8-methyl-3-(1-pyrrolidinylmethyl)-7-quinolinyl][1,1′-biphenyl]-4-carboxamide], the melting point was in the range of 200 to 203 °C.

`O=C(Nc1ccc2cc(CN3CCCC3)cnc2c1F)c1ccc(-c2ccc(F)cc2)cc1` [Example 73, 4′-fluoro-N-[8-fluoro-3-(1-pyrrolidinylmethyl)-7-quinolinyl][1,1′-biphenyl]-4-carboxamide]: the melting point was found to be 178 °C.

Consider `O=C(Nc1ccc2cc(CN3CCC(CO)CC3)cnc2c1)c1ccc(-c2ccc(F)cc2)cc1` [Example 45, 4′-fluoro-N-(3-{[4-(hydroxymethyl)-1-piperidinyl]methyl}-7-quinolinyl)[1,1′-biphenyl]-4-carboxamide], for which the melting point lay within 191 to 195 °C.

Compound `Cc1c(NC(=O)c2ccc(-c3ccc(Cl)cc3)c(F)c2)ccc2cc(CN3CCCC3)cnc12` [Example 154, 4′-chloro-2-fluoro-N-[8-methyl-3-(1-pyrrolidinylmethyl)-7-quinolinyl][1,1′-biphenyl]-4-carboxamide] returned a melting point of 190 to 192 °C.

Consider `COc1ccc(-c2ccc(C(=O)Nc3ccc4cc(CN5CCCC5)cnc4c3C)cn2)cc1` [Example 96, 6-(4-methoxyphenyl)-N-[8-methyl-3-(1-pyrrolidinylmethyl)-7-quinolinyl]nicotinamide], for which the melting point is 180 to 182 °C.

On to `O=C(Nc1ccc2cc(CN3CCCC3)cnc2c1F)c1ccc(-c2ccccc2)cc1F` [Example 77, 3-fluoro-N-[8-fluoro-3-(1-pyrrolidinylmethyl)-7-quinolinyl][1,1′-biphenyl]-4-carboxamide], for which the melting point fell in the range of 136 to 137 °C.

In turn, `O=C(Nc1cc2ncc(CN3CCCC3)cc2cc1Cl)c1ccc(-c2ccc(Cl)s2)cc1` [Example 69, N-[6-chloro-3-(1-pyrrolidinylmethyl)-7-quinolinyl]-4-(5-chlorothien-2-yl)benzamide] returned a melting point of 185 °C.

The compound `O=C(Nc1cc2ncc(CN3CCCC3)cc2cc1F)c1ccc(-c2ccccc2)cc1` [Example 52, N-[6-fluoro-3-(1-pyrrolidinylmethyl)-7-quinolinyl][1,1′-biphenyl]-4-carboxamide] displayed a melting point of 206 to 208 °C.

For the compound `COc1cc2cc(CN3CCCC3)cnc2cc1NC(=O)c1ccc(-c2ccc(Cl)cc2)cc1` [Example 23, 4′-chloro-N-[6-methoxy-3-(1-pyrrolidinylmethyl)-7-quinolinyl][1,1′-biphenyl]-4-carboxamide], the melting point was 271 °C (dec.).

On to `O=C(Nc1ccc2cc(CN3CCCC3)cnc2c1)c1ccc(-c2ccccc2)cc1F` [Example 88, 3-fluoro-N-[3-(1-pyrrolidinylmethyl)-7-quinolinyl][1,1′-biphenyl]-4-carboxamide], for which the melting point turned out to be 166 °C.

With `Cc1cc2cc(CN3CCC(CCC(N)=O)CC3)cnc2cc1NC(=O)c1ccc(-c2ccc(F)cc2)cc1` [Example 253, N-(3-{[4-(3-amino-3-oxopropyl)-1-piperidinyl]methyl}-6-methyl-7-quinolinyl)-4′-fluoro[1,1′-biphenyl]-4-carboxamide], the melting point lay in the range of 223 to 227 °C.

The compound `CNC(=O)CC1CCN(Cc2cnc3cc(NC(=O)c4ccc(-c5ccc(F)cc5)cc4)c(C)cc3c2)CC1` [Example 269, 4′-fluoro-N-[6-methyl-3-({4-[2-(methylamino)-2-oxoethyl]-1-piperidinyl}methyl)-7-quinolinyl][1,1′-biphenyl]-4-carboxamide] gave a melting point of 243 °C.

In turn, `O=C(Nc1cc2ncc(CN3CCCC3)cc2cc1F)c1ccc(-c2ccccc2)cc1F` [Example 58, 3-fluoro-N-[6-fluoro-3-(1-pyrrolidinylmethyl)-7-quinolinyl][1,1′-biphenyl]-4-carboxamide] had a melting point of 163 to 164 °C.

The compound `CC(=O)NC1CCN(Cc2cnc3cc(NC(=O)c4ccc(-c5ccc(Cl)cc5)cc4)ccc3c2)C1` (stereo not shown) [Example 92, N-(3-{[3-(acetylamino)-1-pyrrolidinyl]methyl}-7-quinolinyl)-4′-chloro-[1,1′-biphenyl]-4-carboxamide] gave a melting point greater than 285 °C.

Regarding `O=C(Nc1cc2ncc(CN3CCCC3)cc2cc1F)c1ccc(-c2ccc(C(F)(F)F)cc2)cc1` [Example 55, N-[6-fluoro-3-(1-pyrrolidinylmethyl)-7-quinolinyl]-4′-(trifluoromethyl)[1,1′-biphenyl]-4-carboxamide], the melting point was 209 to 212 °C.

These data come from patent US7183415B2, “Quinoline compound” (Takeda Pharmaceutical Company Limited, priority 2001, dated 2007).
